For 32 molecules, IC50 results are on record in US10280169B2, “Biaryl bruton's tyrosine kinase inhibitors” (BIOGEN MA INC., priority 2013, dated 2019).

pIC50: −log10 of the molar value.

This assay deals with T1, BTK (Homo sapiens, UniProt Q06187).
T1 construct: purchased Upstate 14-552
T1 sequence (Q06187 whole entry): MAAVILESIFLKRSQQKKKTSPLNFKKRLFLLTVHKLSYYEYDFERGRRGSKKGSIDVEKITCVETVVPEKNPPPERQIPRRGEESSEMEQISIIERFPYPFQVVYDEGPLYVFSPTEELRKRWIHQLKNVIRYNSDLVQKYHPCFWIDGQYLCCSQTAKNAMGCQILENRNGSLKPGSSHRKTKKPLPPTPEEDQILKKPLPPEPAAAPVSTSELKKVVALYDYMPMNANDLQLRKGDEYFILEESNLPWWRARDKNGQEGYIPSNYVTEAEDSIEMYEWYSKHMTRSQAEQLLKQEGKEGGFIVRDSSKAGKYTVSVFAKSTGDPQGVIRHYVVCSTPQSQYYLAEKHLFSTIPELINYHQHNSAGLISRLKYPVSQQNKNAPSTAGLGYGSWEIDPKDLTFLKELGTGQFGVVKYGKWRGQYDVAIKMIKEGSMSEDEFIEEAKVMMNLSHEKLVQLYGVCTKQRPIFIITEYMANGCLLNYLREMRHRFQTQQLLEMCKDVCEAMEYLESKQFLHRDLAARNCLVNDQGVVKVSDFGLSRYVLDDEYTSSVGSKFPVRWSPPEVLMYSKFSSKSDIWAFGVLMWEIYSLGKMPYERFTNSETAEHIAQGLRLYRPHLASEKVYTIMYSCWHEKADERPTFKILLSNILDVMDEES
In words: In vitro BTK kinase assay: BTK-POLYGAT-LS assay. It counts as biochemical. The following applies: 10 uM ATP, read-out: IC50 (10 uMATP).
Take `CC(NC(=O)c1nc2c(s1)CCCC2)c1ccc(-c2ncnc3[nH]ccc23)cc1C(F)(F)F` (centres unmarked) [Example I-79, N-(1-(4-(7H-pyrrolo[2,3-d]pyrimidin-4-yl)-2-(trifluoromethyl)phenyl)ethyl)-4,5,6,7-tetrahydrobenzo[d]thiazole-2-carboxamide]: the negative logarithm of the IC50 (pIC50) is 7.00 to 8.00. For `CC(NC(=O)c1cc2c(s1)CCCC2)c1ccc(-c2ncnc3[nH]ccc23)cc1C(F)(F)F` (centres unmarked) [Example I-80, N-(1-(4-(7H-pyrrolo[2,3-d]pyrimidin-4-yl)-2-(trifluoromethyl)phenyl)ethyl)-4,5,6,7-tetrahydrobenzo[b]thiophene-2-carboxamide], the pIC50 was 7.00 to 8.00. The value for `O=C(N[C@@H]1CCCc2cc(-c3ncnc4[nH]ccc34)ccc21)c1cc2c(s1)CCCC2` [Example I-81, (R)—N-(6-(7H-Pyrrolo[2,3-d]pyrimidin-4-yl)-1,2,3,4-tetrahydronaphthalen-1-yl)-4,5,6,7-tetrahydrobenzo[b]thiophene-2-carboxamide] was 6.00 to 7.00. In the case of `CC(C)(C)c1ccc(C(=O)NC2COCc3cc(-c4ncnc5[nH]ccc45)ccc32)nc1` (centres unmarked) [Example I-82, N-(7-(7H-pyrrolo[2,3-d]pyrimidin-4-yl)isochroman-4-yl)-5-(tert-butyl)picolinamide], the pIC50 is 6.00 to 7.00. As for `CC(C)(C)c1ccc(C(=O)NC2COCc3cc(-c4ncnc5[nH]ccc45)ccc32)cc1` (centres unmarked) [Example I-83, N-(7-(7H-pyrrolo[2,3-d]pyrimidin-4-yl)isochroman-4-yl)-4-(tert-butyl)benzamide], the negative logarithm of the IC50 (pIC50) is 5.00 to 6.00.

Regarding `CC(C)(C)c1ccc(C(=O)NCc2ccc(-c3ncnc4[nH]ncc34)cc2)cc1` [Example I-84, N-(4-(1H-pyrazolo[3,4-d]pyrimidin-4-yl)benzyl)-4-(tert-butyl)benzamide], the pIC50 is 6.00 to 7.00. Turning to `O=C(N[C@@H]1CCCc2cc(-c3ncnc4[nH]ncc34)ccc21)c1cc2c(s1)CCCC2` [Example I-86, (R)—N-(6-(1H-Pyrazolo[3,4-d]pyrimidin-4-yl)-1,2,3,4-tetrahydronaphthalen-1-yl)-4,5,6,7-tetrahydrobenzo[b]thiophene-2-carboxamide], the negative-log IC50 (pIC50) is 7.00 to 8.00.

Take `CC(C)(C)c1ccc(C(=O)NC2CCCc3cc(-c4ncnc5[nH]ncc45)ccc32)cc1` (centres unmarked) [Example I-88, N-(6-(1H-pyrazolo[3,4-d]pyrimidin-4-yl)-1,2,3,4-tetrahydronaphthalen-1-yl)-4-(tert-butyl)benzamide]: the negative-log IC50 (pIC50) is 7.00 to 8.00.

As to `O=C(NC1CCCc2cc(-c3ncnc4[nH]ncc34)ccc21)c1ccc(Cl)c(F)c1` (centres unmarked) [Example I-90, N-(6-(1H-pyrazolo[3,4-d]pyrimidin-4-yl)-1,2,3,4-tetrahydronaphthalen-1-yl)-4-chloro-3-fluorobenzamide], the pIC50 was 6.00 to 7.00. `O=C(NC1CCCc2cc(-c3ncnc4[nH]ncc34)ccc21)c1ccc(C(F)(F)F)c(F)c1` (centres unmarked) [Example I-91, N-(6-(1H-pyrazolo[3,4-d]pyrimidin-4-yl)-1,2,3,4-tetrahydronaphthalen-1-yl)-3-fluoro-4-(trifluoromethyl)benzamide]: the negative-log IC50 (pIC50) was 7.00 to 8.00. Regarding `O=C(NC1CCCc2cc(-c3ncnc4[nH]ncc34)ccc21)c1ccc(C(F)(F)F)c(Cl)c1` (centres unmarked) [Example I-92, N-(6-(1H-pyrazolo[3,4-d]pyrimidin-4-yl)-1,2,3,4-tetrahydronaphthalen-1-yl)-3-chloro-4-(trifluoromethyl)benzamide], the pIC50 is 6.00 to 7.00. Turning to `O=C(NC1CCCc2cc(-c3ncnc4[nH]ncc34)ccc21)c1ccc(Cl)c(Cl)c1` (centres unmarked) [Example I-93, N-(6-(1H-pyrazolo[3,4-d]pyrimidin-4-yl)-1,2,3,4-tetrahydronaphthalen-1-yl)-3,4-dichlorobenzamide], the pIC50 is 7.00 to 8.00. As to `Cc1nc(C(=O)NC2CCCc3cc(-c4ncnc5[nH]ncc45)ccc32)sc1C` (centres unmarked) [Example I-95, N-(6-(1H-pyrazolo[3,4-d]pyrimidin-4-yl)-1,2,3,4-tetrahydronaphthalen-1-yl)-4,5-dimethylthiazole-2-carboxamide], the pIC50 was 6.00 to 7.00. With `CC(C)c1csc(C(=O)NC2CCCc3cc(-c4ncnc5[nH]ncc45)ccc32)n1` (centres unmarked) [Example I-96, N-(6-(1H-pyrazolo[3,4-d]pyrimidin-4-yl)-1,2,3,4-tetrahydronaphthalen-1-yl)-4-isopropylthiazole-2-carboxamide], the pIC50 was 7.00 to 8.00.

Consider `O=C(NC1CCCc2cc(-c3ncnc4[nH]ncc34)ccc21)c1ccc(C(F)(F)F)cc1` (centres unmarked) [Example I-97, N-(6-(1H-pyrazolo[3,4-d]pyrimidin-4-yl)-1,2,3,4-tetrahydronaphthalen-1-yl)-4-(trifluoromethyl)benzamide], for which the negative-log IC50 (pIC50) is 7.00 to 8.00.

As to `CC(C)(C)c1csc(C(=O)N[C@@H]2CCCc3cc(-c4ncnc5[nH]ncc45)ccc32)n1` [Example I-99, (R)—N-(6-(1H-pyrazolo[3,4-d]pyrimidin-4-yl)-1,2,3,4-tetrahydronaphthalen-1-yl)-4-(tert-butyl)thiazole-2-carboxamide], the negative logarithm of the IC50 (pIC50) is > 8.00. In the case of `Cn1c(C(=O)NC2CCCc3cc(-c4ncnc5[nH]ncc45)ccc32)nc2ccccc21` (centres unmarked) [Example I-101, N-(6-(1H-pyrazolo[3,4-d]pyrimidin-4-yl)-1,2,3,4-tetrahydronaphthalen-1-yl)-1-methyl-1H-benzo[d]imidazole-2-carboxamide], the negative-log IC50 (pIC50) was 6.00 to 7.00.

For `Cc1cc(-c2ncnc3[nH]c(-c4cnn5c4CN(C)CC5)cc23)ccc1CNC(=O)c1cnc(C(C)(C)C)s1` [Example I-102, 2-(tert-butyl)-N-(2-methyl-4-(6-(5-methyl-4,5,6,7-tetrahydropyrazolo[1,5-a]pyrazin-3-yl)-7H-pyrrolo[2,3-d]pyrimidin-4-yl)benzyl)thiazole-5-carboxamide], the pIC50 is > 8.00. The figure for `CC(C)(C)c1nnc(C(=O)NC2CCCc3cc(-c4ncnc5[nH]ncc45)ccc32)s1` (centres unmarked) [Example I-103, N-(6-(1H-pyrazolo[3,4-d]pyrimidin-4-yl)-1,2,3,4-tetrahydronaphthalen-1-yl)-5-(tert-butyl)-1,3,4-thiadiazole-2-carboxamide] is 6.00 to 7.00; for `CC(C)(C)C1CCC(C(=O)NC2CCCc3cc(-c4ncnc5[nH]ncc45)ccc32)CC1` (centres unmarked) [Example I-104, N-(6-(1H-pyrazolo[3,4-d]pyrimidin-4-yl)-1,2,3,4-tetrahydronaphthalen-1-yl)-4-(tert-butyl)cyclohexanecarboxamide] it is 6.00 to 7.00. Consider `O=C(N[C@@H]1CCCc2cc(-c3ncnc4[nH]ncc34)ccc21)[C@H]1CC[C@H](C(F)(F)F)CC1` [Example I-105, trans-N—((R)-6-(1H-pyrazolo[3,4-d]pyrimidin-4-yl)-1,2,3,4-tetrahydronaphthalen-1-yl)-4-(trifluoromethyl)cyclohexanecarboxamide], for which the negative-log IC50 (pIC50) was 6.00 to 7.00. The figure for `O=C(NC1CCCc2cc(-c3ncnc4[nH]ncc34)ccc21)c1nc2ccccc2s1` (centres unmarked) [Example I-106, N-(6-(1H-pyrazolo[3,4-d]pyrimidin-4-yl)-1,2,3,4-tetrahydronaphthalen-1-yl)benzo[d]thiazole-2-carboxamide] is 7.00 to 8.00; for `O=C(NC1CCCc2cc(-c3ncnc4[nH]ncc34)ccc21)c1cc2c(s1)CCCC2` (centres unmarked) [Example I-107, N-(6-(1H-pyrazolo[3,4-d]pyrimidin-4-yl)-1,2,3,4-tetrahydronaphthalen-1-yl)-4,5,6,7-tetrahydrobenzo[b]thiophene-2-carboxamide] it is > 8.00; for `O=C(NCc1ccc(-c2ncnc3[nH]ncc23)cc1C(F)(F)F)c1nc2c(s1)CCCC2` [Example I-108, N-(4-(1H-pyrazolo[3,4-d]pyrimidin-4-yl)-2-(trifluoromethyl)benzyl)-4,5,6,7-tetrahydrobenzo[d]thiazole-2-carboxamide] it is 7.00 to 8.00. For `O=C(NCc1ncc(-c2ncnc3[nH]ncc23)cc1F)c1cc2c(s1)CCCC2` [Example I-109, N-((3-fluoro-5-(1H-pyrazolo[3,4-d]pyrimidin-4-yl)pyridin-2-yl)methyl)-4,5,6,7-tetrahydrobenzo[b]thiophene-2-carboxamide], the pIC50 is 6.00 to 7.00. As to `O=C(NCc1ncc(-c2ccnc3[nH]ncc23)cc1F)c1cc2c(s1)CCCC2` [Example I-110, N-((3-fluoro-5-(1H-pyrazolo[3,4-b]pyridin-4-yl)pyridin-2-yl)methyl)-4,5,6,7-tetrahydrobenzo[b]thiophene-2-carboxamide], the negative-log IC50 (pIC50) was 7.00 to 8.00. The figure for `CC(C)(C)c1ccc(C(=O)NCc2ccc(-c3ncnc4[nH]c(-c5ccc(C(=O)N6CCOCC6)cc5)cc34)cc2)cc1` [Example I-111, 4-(tert-butyl)-N-(4-(6-(4-(morpholine-4-carbonyl)phenyl)-7H-pyrrolo[2,3-d]pyrimidin-4-yl)benzyl)benzamide] is > 8.00; for `CC(NC(=O)c1cnc(C(C)(C)C)s1)c1ccc(-c2ncnc3cc(-c4cnn(C)c4)[nH]c23)cc1` (centres unmarked) [Example I-114, 2-(tert-butyl)-N-(1-(4.-(6-(1-methyl-1H-pyrazol-4-yl)-5H-pyrrolo[3,2-d]pyrimidin-4-yl)phenyl)ethyl)thiazole-5-carboxamide] it is > 8.00. The value for `Cc1cc(-c2ccnc3[nH]ncc23)ncc1CNC(=O)c1cc2c(s1)CCCC2` [Example I-117, N-((4-methyl-6-(1H-pyrazolo[3,4-b]pyridin-4-yl)pyridin-3-yl)methyl)-4,5,6,7-tetrahydrobenzo[b]thiophene-2-carboxamide] was > 8.00; that for `Cc1nc(-c2ccnc3[nH]ncc23)ccc1CNC(=O)c1cc2c(s1)CCCC2` [Example I-118, N-((2-methyl-6-(1H-pyrazolo[3,4-b]pyridin-4-yl)pyridin-3-yl)methyl)-4,5,6,7-tetrahydrobenzo[b]thiophene-2-carboxamide] was > 8.00.

For `O=C(NC1CCCc2cc(-c3ncnc4[nH]ncc34)ccc21)c1cc2ccccc2s1` (centres unmarked) [Example I-120, N-(6-(1H-pyrazolo[3,4-d]pyrimidin-4-yl)-1,2,3,4-tetrahydronaphthalen-1-yl)benzo[b]thiophene-2-carboxamide], the negative-log IC50 (pIC50) was > 8.00. The figure for `Cc1cc(-c2ncnc3[nH]ncc23)ccc1C(C)NC(=O)c1cc2c(s1)CCCC2` (centres unmarked) [Example I-121, N-(1-(2-methyl-4-(1H-pyrazolo[3,4-d]pyrimidin-4-yl)phenyl)ethyl)-4,5,6,7-tetrahydrobenzo[b]thiophene-2-carboxamide] is > 8.00.
